According to ChEMBL document CHEMBL4800727 (2021):

Key:
[1] = target: 5-hydroxytryptamine receptor 1E (Homo sapiens) (UniProt P28566); details: Compound concentration 10.0 uM
[2] = target: Ephrin type-B receptor 1 (Homo sapiens) (UniProt P54762); assay: EPH receptor B1 Millipore kinase panel; details: Compound concentration 10.0 uM
[3] = target: SRSF protein kinase 3 (Homo sapiens) (UniProt Q9UPE1); assay: SFRS protein kinase 3 Millipore kinase panel; details: Compound concentration 10.0 uM
[4] = target: Delta-type opioid receptor (Homo sapiens) (UniProt P41143); assay: hOP1 Cerep panel; details: Compound concentration 10.0 uM
Chain of Delta-type opioid receptor (Homo sapiens) (P41143 whole entry): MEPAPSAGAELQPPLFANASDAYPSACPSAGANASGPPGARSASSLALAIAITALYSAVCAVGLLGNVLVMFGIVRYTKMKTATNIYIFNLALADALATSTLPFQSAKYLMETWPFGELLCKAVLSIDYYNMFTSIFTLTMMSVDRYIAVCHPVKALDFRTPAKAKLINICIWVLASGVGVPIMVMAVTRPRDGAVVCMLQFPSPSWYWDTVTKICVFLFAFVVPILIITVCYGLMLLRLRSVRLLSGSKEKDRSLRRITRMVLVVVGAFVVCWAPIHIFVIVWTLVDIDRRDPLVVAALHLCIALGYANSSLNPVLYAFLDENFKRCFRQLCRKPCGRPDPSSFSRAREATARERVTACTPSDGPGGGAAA

[5] = target: High affinity nerve growth factor receptor (Homo sapiens) (UniProt P04629); assay: neurotrophic tyrosine kinase, receptor, type 1 Millipore kinase panel; details: Compound concentration 10.0 uM
[6] = target: Neuromedin-K receptor (Homo sapiens) (UniProt P29371); assay: hNK3 Cerep panel; details: Compound concentration 10.0 uM
[7] = target: Mitogen-activated protein kinase kinase kinase kinase 2 (Homo sapiens) (UniProt Q12851); assay: mitogen-activated protein kinase kinase kinase kinase 2 Millipore kinase panel; details: Compound concentration 10.0 uM
[8] = target: T1, 5-hydroxytryptamine receptor 1A (Homo sapiens) (UniProt P08908); assay: h5HT1A Cerep panel; details: Compound concentration 10.0 uM
T1 sequence (whole entry): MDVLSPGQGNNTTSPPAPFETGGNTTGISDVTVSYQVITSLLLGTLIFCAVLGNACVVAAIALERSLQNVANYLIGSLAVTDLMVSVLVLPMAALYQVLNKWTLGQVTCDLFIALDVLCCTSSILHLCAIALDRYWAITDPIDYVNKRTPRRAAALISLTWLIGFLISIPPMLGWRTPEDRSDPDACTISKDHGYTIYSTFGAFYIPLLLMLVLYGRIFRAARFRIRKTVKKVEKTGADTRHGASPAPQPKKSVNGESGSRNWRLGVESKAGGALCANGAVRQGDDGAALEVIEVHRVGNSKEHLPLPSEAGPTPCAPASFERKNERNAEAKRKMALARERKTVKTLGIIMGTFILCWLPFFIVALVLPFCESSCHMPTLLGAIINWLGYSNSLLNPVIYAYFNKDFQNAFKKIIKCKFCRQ

[9] = target: 5-hydroxytryptamine receptor 7 (Homo sapiens, UniProt P34969); assay: h5HT7 Cerep panel; details: Compound concentration 10.0 uM
[10] = target: High affinity 3',5'-cyclic-AMP phosphodiesterase 7A (Homo sapiens, UniProt Q13946); assay: hPDE7A1 PDE scan
[11] = target: Dual specificity mitogen-activated protein kinase kinase 1 (Homo sapiens) (UniProt Q02750); assay: mitogen-activated protein kinase kinase 1 Millipore kinase panel; details: Compound concentration 10.0 uM
Chain of Dual specificity mitogen-activated protein kinase kinase 1 (Homo sapiens) (Q02750 whole entry): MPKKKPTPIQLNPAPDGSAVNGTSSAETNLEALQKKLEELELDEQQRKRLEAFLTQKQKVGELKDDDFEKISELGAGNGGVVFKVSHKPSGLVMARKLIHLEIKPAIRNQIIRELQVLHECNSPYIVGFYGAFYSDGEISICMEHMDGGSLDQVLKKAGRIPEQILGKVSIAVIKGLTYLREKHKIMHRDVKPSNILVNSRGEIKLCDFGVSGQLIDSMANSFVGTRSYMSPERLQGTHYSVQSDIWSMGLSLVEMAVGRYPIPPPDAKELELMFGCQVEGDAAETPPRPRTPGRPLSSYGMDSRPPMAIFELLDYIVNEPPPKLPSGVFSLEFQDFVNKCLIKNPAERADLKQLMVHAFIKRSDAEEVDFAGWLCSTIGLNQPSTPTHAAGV

[12] = target: C-X-C chemokine receptor type 2 (Homo sapiens) (UniProt P25025); assay: hBCXCR2 Cerep panel; details: Compound concentration 10.0 uM
[13] = target: Protein kinase C beta type (Homo sapiens) (UniProt P05771); assay: protein kinase C, beta 1 Millipore kinase panel; details: Compound concentration 10.0 uM
[14] = target: PAS domain-containing serine/threonine-protein kinase (Homo sapiens) (UniProt Q96RG2); assay: PAS domain containing serine/threonine kinase Millipore kinase panel; details: Compound concentration 10.0 uM
[15] = target: Phosphatidylinositol 4,5-bisphosphate 3-kinase catalytic subunit beta isoform (Homo sapiens) (UniProt P42338); assay: phosphoinositide-3-kinase, catalytic, beta polypeptide Millipore kinase panel; details: Compound concentration 10.0 uM
[16] = target: T2, Alpha-1B adrenergic receptor (Homo sapiens) (UniProt P35368); assay: hAb1 Cerep panel; details: Compound concentration 10.0 uM
T2 sequence (whole entry): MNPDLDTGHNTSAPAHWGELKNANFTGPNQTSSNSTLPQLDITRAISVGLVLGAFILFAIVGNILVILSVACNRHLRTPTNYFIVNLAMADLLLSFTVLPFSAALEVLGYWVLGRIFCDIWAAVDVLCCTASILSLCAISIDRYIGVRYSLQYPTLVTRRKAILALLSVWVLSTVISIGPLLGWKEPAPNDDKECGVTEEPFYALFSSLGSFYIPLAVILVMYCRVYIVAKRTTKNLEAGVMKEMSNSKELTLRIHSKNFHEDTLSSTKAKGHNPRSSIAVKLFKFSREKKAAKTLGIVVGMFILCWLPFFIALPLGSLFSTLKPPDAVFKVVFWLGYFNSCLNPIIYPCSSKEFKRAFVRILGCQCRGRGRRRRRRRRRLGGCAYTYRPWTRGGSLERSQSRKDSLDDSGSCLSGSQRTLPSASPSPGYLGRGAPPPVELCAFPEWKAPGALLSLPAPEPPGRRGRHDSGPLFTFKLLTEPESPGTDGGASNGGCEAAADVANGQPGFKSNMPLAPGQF

[17] = target: Muscarinic acetylcholine receptor M5 (Homo sapiens) (UniProt P08912); assay: hM5 Cerep panel; details: Compound concentration 10.0 uM
[18] = target: cAMP and cAMP-inhibited cGMP 3',5'-cyclic phosphodiesterase 10A (Mus musculus) (UniProt Q8CA95)
Chain of cAMP and cAMP-inhibited cGMP 3',5'-cyclic phosphodiesterase 10A (Mus musculus) (Q8CA95 whole entry, the tested form may be a part): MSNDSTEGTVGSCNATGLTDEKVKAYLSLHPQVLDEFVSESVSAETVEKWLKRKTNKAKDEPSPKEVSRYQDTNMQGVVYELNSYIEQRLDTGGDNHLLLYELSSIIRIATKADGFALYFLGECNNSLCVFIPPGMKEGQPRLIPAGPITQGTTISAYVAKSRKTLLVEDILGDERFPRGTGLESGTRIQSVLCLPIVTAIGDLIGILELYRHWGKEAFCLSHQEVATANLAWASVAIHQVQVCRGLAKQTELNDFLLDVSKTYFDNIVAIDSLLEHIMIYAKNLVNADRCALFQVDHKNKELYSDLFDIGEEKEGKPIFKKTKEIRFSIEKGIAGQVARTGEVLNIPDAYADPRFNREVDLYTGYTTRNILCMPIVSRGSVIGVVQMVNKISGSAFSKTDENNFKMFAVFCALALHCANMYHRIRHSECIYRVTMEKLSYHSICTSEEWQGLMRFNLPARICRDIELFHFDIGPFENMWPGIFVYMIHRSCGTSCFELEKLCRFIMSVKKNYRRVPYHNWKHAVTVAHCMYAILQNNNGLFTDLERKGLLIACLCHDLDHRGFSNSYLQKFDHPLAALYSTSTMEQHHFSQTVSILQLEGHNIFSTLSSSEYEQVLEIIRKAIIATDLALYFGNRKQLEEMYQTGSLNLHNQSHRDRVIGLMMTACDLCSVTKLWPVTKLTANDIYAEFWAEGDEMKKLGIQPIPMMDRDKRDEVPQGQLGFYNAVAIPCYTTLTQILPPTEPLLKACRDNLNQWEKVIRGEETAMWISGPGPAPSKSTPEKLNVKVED

[19] = target: LIM domain kinase 1 (Homo sapiens) (UniProt P53667); assay: LIM domain kinase 1 Millipore kinase panel; details: Compound concentration 10.0 uM
[20] = target: Serine/threonine-protein kinase ULK2 (Homo sapiens) (UniProt Q8IYT8); assay: unc-51-like kinase 2 Millipore kinase panel; details: Compound concentration 10.0 uM
[21] = target: Melanocortin receptor 4 (Homo sapiens) (UniProt P32245); assay: hMC4 Cerep panel; details: Compound concentration 10.0 uM
Chain of Melanocortin receptor 4 (Homo sapiens) (P32245 whole entry): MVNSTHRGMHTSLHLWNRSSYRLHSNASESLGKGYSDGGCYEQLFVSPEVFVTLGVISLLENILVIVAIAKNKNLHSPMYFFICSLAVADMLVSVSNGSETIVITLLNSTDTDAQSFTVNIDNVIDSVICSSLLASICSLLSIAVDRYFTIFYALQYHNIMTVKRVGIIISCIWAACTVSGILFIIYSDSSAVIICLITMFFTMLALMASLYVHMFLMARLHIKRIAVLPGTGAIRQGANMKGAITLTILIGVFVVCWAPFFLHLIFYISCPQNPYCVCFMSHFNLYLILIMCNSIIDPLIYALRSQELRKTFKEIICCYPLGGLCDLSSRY

[22] = target: Androgen receptor (Homo sapiens) (UniProt P10275); assay: hAR Cerep panel; details: Compound concentration 10.0 uM
Chain of Androgen receptor (Homo sapiens) (P10275 whole entry): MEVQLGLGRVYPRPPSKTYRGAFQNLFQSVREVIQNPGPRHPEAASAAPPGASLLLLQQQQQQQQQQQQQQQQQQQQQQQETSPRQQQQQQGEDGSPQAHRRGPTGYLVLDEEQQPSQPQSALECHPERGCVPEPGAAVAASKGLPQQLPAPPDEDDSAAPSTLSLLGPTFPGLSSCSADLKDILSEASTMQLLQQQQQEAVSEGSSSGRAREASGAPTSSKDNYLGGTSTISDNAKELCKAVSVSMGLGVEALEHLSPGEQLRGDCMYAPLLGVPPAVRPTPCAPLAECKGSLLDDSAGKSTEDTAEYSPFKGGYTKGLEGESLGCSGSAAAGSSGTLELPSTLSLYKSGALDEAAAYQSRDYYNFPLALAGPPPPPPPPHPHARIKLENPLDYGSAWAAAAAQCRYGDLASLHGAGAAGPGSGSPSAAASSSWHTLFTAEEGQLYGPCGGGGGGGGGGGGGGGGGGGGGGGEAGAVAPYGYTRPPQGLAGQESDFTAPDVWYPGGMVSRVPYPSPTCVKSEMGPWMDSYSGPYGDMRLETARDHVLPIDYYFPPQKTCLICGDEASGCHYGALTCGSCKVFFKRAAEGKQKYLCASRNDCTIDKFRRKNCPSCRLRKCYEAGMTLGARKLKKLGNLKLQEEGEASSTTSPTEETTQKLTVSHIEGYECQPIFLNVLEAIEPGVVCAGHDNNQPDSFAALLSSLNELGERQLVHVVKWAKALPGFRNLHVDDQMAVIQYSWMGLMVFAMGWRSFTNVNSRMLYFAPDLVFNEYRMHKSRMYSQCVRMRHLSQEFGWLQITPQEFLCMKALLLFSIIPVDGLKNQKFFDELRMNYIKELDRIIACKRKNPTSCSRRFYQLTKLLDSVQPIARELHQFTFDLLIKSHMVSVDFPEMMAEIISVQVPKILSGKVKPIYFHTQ

[23] = target: Cannabinoid receptor 2 (Homo sapiens) (UniProt P34972); assay: hCB2 Cerep panel; details: Compound concentration 10.0 uM
Rattus norvegicus = species: Rattus norvegicus; assay: rK channel Cerep panel; details: Compound concentration 10.0 uM
[24] = target: Mitogen-activated protein kinase 9 (Homo sapiens) (UniProt P45984); assay: mitogen-activated protein kinase 9 Millipore kinase panel; details: Compound concentration 10.0 uM
[25] = target: MAP kinase-activated protein kinase 3 (Homo sapiens) (UniProt Q16644); assay: mitogen-activated protein kinase-activated protein kinase 3 Millipore kinase panel; details: Compound concentration 10.0 uM
Chain of MAP kinase-activated protein kinase 3 (Homo sapiens) (Q16644 whole entry, looked up): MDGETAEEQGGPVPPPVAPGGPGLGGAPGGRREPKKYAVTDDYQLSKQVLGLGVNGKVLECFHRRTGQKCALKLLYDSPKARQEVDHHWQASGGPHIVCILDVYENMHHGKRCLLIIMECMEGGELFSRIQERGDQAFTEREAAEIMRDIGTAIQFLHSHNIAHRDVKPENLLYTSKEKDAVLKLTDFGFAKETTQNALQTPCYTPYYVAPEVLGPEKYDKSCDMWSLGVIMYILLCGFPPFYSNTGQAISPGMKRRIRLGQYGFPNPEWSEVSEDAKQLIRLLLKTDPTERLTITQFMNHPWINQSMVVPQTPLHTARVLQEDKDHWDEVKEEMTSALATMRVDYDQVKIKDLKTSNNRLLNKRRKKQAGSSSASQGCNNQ

[26] = target: Serine/threonine-protein kinase Chk1 (Homo sapiens) (UniProt O14757); assay: CHK1 checkpoint homolog (S. pombe) Millipore kinase panel; details: Compound concentration 10.0 uM
Chain of Serine/threonine-protein kinase Chk1 (Homo sapiens) (O14757 whole entry): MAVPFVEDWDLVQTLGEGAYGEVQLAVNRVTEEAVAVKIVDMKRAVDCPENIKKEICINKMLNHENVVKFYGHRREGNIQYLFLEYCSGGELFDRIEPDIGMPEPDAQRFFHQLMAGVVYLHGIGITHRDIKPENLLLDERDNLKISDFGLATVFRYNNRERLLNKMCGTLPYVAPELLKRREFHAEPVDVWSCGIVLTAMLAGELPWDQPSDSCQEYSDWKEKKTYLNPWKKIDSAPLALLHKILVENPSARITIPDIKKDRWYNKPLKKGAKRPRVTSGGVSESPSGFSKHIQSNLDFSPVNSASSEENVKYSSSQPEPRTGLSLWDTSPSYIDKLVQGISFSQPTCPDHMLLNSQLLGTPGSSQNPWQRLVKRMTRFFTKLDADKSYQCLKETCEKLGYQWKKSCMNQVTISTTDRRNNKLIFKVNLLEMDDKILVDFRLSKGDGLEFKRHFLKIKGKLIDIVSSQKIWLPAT

[27] = target: Prostaglandin G/H synthase 1 (Homo sapiens) (UniProt P23219); assay: hCOX1 Cerep panel; details: Compound concentration 10.0 uM
[28] = target: Substance-K receptor (Homo sapiens) (UniProt P21452); assay: hNK2 Cerep panel; details: Compound concentration 10.0 uM
[29] = target: Mitogen-activated protein kinase kinase kinase 7 (Homo sapiens) (UniProt O43318); assay: mitogen-activated protein kinase kinase kinase 7 Millipore kinase panel; details: Compound concentration 10.0 uM
[30] = target: Ribosomal protein S6 kinase alpha-5 (Homo sapiens) (UniProt O75582); assay: ribosomal protein S6 kinase, 90kDa, polypeptide 5 Millipore kinase panel; details: Compound concentration 10.0 uM
[31] = target: Protein-tyrosine kinase 6 (Homo sapiens) (UniProt Q13882); assay: PTK6 protein tyrosine kinase 6 Millipore kinase panel; details: Compound concentration 10.0 uM
[32] = target: Proto-oncogene tyrosine-protein kinase receptor Ret (Homo sapiens) (UniProt P07949); assay: ret proto-oncogene Millipore kinase panel; details: Compound concentration 10.0 uM
[33] = target: Muscarinic acetylcholine receptor M3 (Homo sapiens) (UniProt P20309); assay: hM3 Cerep panel; details: Compound concentration 10.0 uM
[34] = target: Dual 3',5'-cyclic-AMP and -GMP phosphodiesterase 11A (Homo sapiens, UniProt Q9HCR9); assay: hPDE11A4 PDE scan
Chain of Dual 3',5'-cyclic-AMP and -GMP phosphodiesterase 11A (Q9HCR9 whole entry): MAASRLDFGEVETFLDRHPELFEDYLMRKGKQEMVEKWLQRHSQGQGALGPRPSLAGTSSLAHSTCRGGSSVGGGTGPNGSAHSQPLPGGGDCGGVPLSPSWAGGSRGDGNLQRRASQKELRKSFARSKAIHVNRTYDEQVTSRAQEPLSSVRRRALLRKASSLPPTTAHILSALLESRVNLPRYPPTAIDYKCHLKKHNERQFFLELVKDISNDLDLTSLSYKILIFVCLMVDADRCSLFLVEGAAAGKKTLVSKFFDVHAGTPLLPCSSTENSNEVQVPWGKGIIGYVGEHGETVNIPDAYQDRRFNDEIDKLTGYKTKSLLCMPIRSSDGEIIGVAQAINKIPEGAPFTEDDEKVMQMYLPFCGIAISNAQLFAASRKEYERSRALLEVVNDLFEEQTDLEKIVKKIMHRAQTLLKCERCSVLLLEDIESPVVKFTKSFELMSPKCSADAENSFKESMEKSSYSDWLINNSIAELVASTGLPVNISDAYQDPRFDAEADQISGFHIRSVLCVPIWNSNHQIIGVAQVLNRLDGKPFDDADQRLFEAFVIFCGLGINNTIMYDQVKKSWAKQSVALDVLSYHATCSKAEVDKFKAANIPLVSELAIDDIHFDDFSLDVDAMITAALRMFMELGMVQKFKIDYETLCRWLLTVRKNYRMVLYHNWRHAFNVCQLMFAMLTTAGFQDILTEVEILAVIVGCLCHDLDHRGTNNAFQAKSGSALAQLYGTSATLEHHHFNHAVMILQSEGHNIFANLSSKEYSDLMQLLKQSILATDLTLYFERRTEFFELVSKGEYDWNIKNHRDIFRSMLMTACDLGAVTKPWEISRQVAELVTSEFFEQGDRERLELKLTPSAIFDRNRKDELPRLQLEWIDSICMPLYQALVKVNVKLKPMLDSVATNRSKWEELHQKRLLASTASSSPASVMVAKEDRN

[35] = target: Adenosine receptor A2a (Homo sapiens) (UniProt P29274); assay: hA2A Cerep panel; details: Compound concentration 10.0 uM
[36] = target: Mitogen-activated protein kinase 14 (Homo sapiens) (UniProt Q16539); assay: mitogen-activated protein kinase 14 Millipore kinase panel; details: Compound concentration 10.0 uM

Chain of 5-hydroxytryptamine receptor 1E (Homo sapiens) (P28566 whole entry): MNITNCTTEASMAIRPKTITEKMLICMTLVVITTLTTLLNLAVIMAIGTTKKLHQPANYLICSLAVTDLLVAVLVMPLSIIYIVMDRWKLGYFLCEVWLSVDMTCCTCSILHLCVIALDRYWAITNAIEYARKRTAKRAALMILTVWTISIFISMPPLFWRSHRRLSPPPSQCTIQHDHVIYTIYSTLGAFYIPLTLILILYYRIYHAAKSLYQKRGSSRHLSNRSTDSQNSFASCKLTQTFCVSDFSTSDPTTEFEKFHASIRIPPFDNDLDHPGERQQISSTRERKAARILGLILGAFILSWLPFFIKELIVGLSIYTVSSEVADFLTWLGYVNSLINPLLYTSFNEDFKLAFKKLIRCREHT

Work on `c1ccc(C2CCN(c3cnc4c(N5CCOCC5)nccn34)CC2)cc1` yielded an inhibition [1] of 5.84%.

In the case of `COCCc1ccc(-c2c(C)nc3c(N4CCOCC4)ccnn23)cn1` [JNJ-42396302], the inhibition [2] is reported as 2%, the inhibition [3] is reported as -6% and the effect [4] is reported as 8.95%. The inhibition [5] was 7%, the effect [6] was -8.65% and the inhibition [7] was -5%. For the same molecule, the effect [8] was 8.65%, the effect [9] was 8.6% and the Ki [10] was 23 µM. The inhibition [11] was -1%, the effect [12] was 5.15% and the inhibition [13] was -5%. For the same molecule, the inhibition [14] was 5%, the inhibition [15] was 1% and the effect [16] was 6.55%. The effect [17] was -0.55%, the Increase in cAMP [18] was 10 fold and the inhibition [19] was -3%. For the same molecule, the inhibition [20] was 6%, the effect [21] was 6.35% and the effect [22] was -13.8%. The effect [23] was 6.1%, the effect (Rattus norvegicus) was -9.45% and the inhibition [24] was 0%. For the same molecule, the inhibition [25] was 3%, the inhibition [26] was -9% and the effect [27] was 13%. For the same molecule, the effect [28] was 9.7%, the inhibition [29] was 5% and the inhibition [30] was 3%. For the same molecule, the inhibition [31] was -6%, the inhibition [32] was 5% and the effect [33] was 13.9%. For the same molecule, the Ki [34] was 46 µM, the effect [35] was 17.8% and the inhibition [36] was -4%.
